Converted amounts (≈) assume the structure as drawn. Where two headings read alike, the source gives them in different places.
What was measured:
[1] = system: A431 cells (EGFR wild type); experiment: Inhibitory activity on cell proliferation, A431; format: cell-based; details: Homo sapiens, A-431; A431, 72 hours; read-out: Inhibitory activity on proliferation of cells (IC50, μM) A431
Method: (§1) Cell proliferation activity was assessed by MTS assay. Cells were exposed to processing conditions for 72 hours and the number of cells used in each experiment for each cell line was adjusted based on absorbance values (absorbance values at 490 nm, 1.3-2.2). Six concentration gradients (0.1 nM-10 μM) were set for the compounds to be tested, wherein at least 6 sets of parallel controls for each concentration were used.
(§2) H1975, A431 cells were cultured in corresponding media, and cells were passaged at least twice after resuscitation and then used for experiments. Cells at Log phase were trypsinized and resuspended in culture medium. H1975 (1000 cells per well), A431 (2000 cells per well) were seeded in 96-well plates in a volume of 100 μL; and 6 sets of parallel controls and 7 columns were set. The plate was placed in a 37° C. 5% CO2 incubator overnight. Compounds were dissolved in DMSO to a concentration of […], and then the concentration was gradually diluted to 10 μM, 1 μM, 0.1 μM, 0.01 μM, 0.001 μM, 0.0001 μM per liter, respectively. 2 μL of the compound solution was added to 998 μL of medium, and the mixture was thoroughly mixed. 100 μL of the mixture was added to a 96-well plate. […] After culturing for 68 hours, 20 μL of MTT (5 mg/mL) was added. After 4 hours, the supernatant was discarded and 150 μL of DMSO was added. After shaking for 10 minutes, the plate was read with Synergy HT (Bio TeK) (OD490). Data were calculated using GraphPad Prism version 4.0 and IC50 values were obtained using a non-linear regression model of dose response curve.

Wild type EGFR = target: T1, Wild type EGFR (Homo sapiens, UniProt P00533); experiment: Kinase activity test (FRET), wild type EGFR; format: biochemical; details: wild type EGFR
T1 construct: purchased Invitrogen PV3872
Method: (§3) EGFR-TK catalyses transfer of one phosphate group of adenosine triphosphate (ATP) to polypeptide substrate, poly(Glu, Tyr)4:1, which is labeled with two fluorescent groups coumarin and fluorescein.
(§4) 2.5 μL of Test Compounds, 5 μL Kinase/Peptide Substrate Mixture, 2.5 μL ATP Solution were added into a 384-well plate, and the 10 μL of reaction system was shaken for 30 s and incubated at room temperature for 1 h. 5 μL of Development Solution was added and the 15 μL of reaction system was shaken for 30 s, and incubated at room temperature for 1 h. […] The inhibitory rates of the compounds at 7 concentration gradients were determined and the IC50 value for each compound was calculated by Origin 8.0 fitting curve.
(§5) 10 concentration gradients from 5.1×10^−11 mol/L to 1.0×10^−6 mol/L were set for all compounds to be tested.
(§6) Compounds were diluted in DMSO for three times from 5.1×10^−9 M to 1×10^−4 M. 4 μL of the compound was dissolved in 96 μL of water to obtain a 4× compound solution. […] The 10 μL kinase reaction consisted of 2.5 μL compound solution, 5 μL kinase/peptide mix, 2.5 μL ATP solution. […] 5 μL of phosphorylated peptide solution, instead of the kinase/peptide mixture, was used as a 100% phosphorylation control. […] The plates were thoroughly mixed and incubated at room temperature for 1.5 hours. 5 μL of Development Solution was added into each well and then incubated for another 1 hour at room temperature, unphosphorylated peptides were cleaved during this period. Finally, 5 μL Stop Reagent was added to quench the reaction. The plates were measured with EnVision Multilabel Reader (Perkin Elmer). The experimental data were calculated using GraphPad Prism version 4.0. Each experiment was repeated more than 3 times.

[2] = system: H1975 cells (EGFR L858R/T790M); experiment: Inhibitory activity on cell proliferation, H1975; format: cell-based; details: Homo sapiens, NCI-H1975
Method: as §1, §2

[3] = Determination of solubility in water (PBS 20 mM, pH 6.8); format: physicochemical; details: PBS buffer, aqueous buffer, thermodynamic from solid
Method: The suspension was filtered through a 0.22 μm PVDF filter, and then diluted to an appropriate concentration with methanol (v=50%) and PBS (v=50%), and the absorbance was measured by a UV spectrophotometer. About 3 mg of compound was accurately weighed, and methanol was added for preparing a stock solution of 1 mg/mL. The above stock solution was taken and prepared into a solution at concentrations of 0.05, 0.04, 0.03, 0.02 and 0.01 mg/mL, respectively, PBS solution (v=50%) was added and the absorbance value was measured. Concentration c (mg/mL) as horizontal ordinate vs absorbance A as longitudinal coordinate was plotted, and a line was fitted for obtaining a standard curve (correlation coefficient greater than 0.998). The solubility of a compound in water was calculated from the standard curve.

EGFR-L858R/T790M = target: T2, EGFR-L858R/T790M (Homo sapiens, UniProt P00533, L858R/T790M); experiment: Kinase activity test (FRET), EGFR T790M/L858R; format: biochemical
T2 construct: purchased Invitrogen PV4879
Method: as §3, §4, §5, §6

[4] = read-out: Inhibitory activity of EGFR on kinase (IC50, nM) WT
[5] = H1975, 72 hours, read-out: Inhibitory activity on proliferation of cells (IC50, μM) H1975
[6] = pH 6.8, 20 mM PBS, read-out: Solubility (pH 6.8, g/mL)
[7] = EGFR T790M/L858R, read-out: Inhibitory activity of EGFR on kinase (IC50, nM) T790M/L858R

T2 sequence (P00533 25-1210 T790M/L858R): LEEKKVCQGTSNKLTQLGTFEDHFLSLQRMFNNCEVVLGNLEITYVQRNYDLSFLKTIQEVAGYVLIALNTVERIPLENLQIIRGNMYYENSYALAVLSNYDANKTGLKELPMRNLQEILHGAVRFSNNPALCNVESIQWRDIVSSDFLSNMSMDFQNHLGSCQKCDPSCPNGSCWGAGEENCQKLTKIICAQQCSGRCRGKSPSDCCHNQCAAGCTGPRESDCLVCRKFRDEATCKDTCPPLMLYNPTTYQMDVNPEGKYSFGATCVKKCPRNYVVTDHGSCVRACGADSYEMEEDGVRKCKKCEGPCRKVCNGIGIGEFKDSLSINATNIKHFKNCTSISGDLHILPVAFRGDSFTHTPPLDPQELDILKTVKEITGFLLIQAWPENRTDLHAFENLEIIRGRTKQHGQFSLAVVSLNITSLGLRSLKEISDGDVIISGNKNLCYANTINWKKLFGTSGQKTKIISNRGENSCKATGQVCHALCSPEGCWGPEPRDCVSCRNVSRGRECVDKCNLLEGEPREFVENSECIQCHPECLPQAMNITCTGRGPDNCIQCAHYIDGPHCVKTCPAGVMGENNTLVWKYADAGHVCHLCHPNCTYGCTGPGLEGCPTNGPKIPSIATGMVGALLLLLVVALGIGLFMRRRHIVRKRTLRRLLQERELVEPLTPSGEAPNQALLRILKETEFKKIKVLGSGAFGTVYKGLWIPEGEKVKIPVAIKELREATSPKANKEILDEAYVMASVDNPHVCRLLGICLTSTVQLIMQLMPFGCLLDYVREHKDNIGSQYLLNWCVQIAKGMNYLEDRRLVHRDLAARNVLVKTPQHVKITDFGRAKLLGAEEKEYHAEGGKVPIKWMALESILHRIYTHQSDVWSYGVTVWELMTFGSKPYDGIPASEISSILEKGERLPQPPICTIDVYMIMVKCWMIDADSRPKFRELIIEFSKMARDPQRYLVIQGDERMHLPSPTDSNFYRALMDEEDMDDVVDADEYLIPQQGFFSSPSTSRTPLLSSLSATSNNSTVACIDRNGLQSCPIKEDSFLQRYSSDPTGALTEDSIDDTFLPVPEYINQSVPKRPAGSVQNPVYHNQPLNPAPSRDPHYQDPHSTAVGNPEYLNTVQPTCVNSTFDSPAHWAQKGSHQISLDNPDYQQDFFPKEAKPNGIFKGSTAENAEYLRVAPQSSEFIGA
T1 sequence (P00533 25-1210): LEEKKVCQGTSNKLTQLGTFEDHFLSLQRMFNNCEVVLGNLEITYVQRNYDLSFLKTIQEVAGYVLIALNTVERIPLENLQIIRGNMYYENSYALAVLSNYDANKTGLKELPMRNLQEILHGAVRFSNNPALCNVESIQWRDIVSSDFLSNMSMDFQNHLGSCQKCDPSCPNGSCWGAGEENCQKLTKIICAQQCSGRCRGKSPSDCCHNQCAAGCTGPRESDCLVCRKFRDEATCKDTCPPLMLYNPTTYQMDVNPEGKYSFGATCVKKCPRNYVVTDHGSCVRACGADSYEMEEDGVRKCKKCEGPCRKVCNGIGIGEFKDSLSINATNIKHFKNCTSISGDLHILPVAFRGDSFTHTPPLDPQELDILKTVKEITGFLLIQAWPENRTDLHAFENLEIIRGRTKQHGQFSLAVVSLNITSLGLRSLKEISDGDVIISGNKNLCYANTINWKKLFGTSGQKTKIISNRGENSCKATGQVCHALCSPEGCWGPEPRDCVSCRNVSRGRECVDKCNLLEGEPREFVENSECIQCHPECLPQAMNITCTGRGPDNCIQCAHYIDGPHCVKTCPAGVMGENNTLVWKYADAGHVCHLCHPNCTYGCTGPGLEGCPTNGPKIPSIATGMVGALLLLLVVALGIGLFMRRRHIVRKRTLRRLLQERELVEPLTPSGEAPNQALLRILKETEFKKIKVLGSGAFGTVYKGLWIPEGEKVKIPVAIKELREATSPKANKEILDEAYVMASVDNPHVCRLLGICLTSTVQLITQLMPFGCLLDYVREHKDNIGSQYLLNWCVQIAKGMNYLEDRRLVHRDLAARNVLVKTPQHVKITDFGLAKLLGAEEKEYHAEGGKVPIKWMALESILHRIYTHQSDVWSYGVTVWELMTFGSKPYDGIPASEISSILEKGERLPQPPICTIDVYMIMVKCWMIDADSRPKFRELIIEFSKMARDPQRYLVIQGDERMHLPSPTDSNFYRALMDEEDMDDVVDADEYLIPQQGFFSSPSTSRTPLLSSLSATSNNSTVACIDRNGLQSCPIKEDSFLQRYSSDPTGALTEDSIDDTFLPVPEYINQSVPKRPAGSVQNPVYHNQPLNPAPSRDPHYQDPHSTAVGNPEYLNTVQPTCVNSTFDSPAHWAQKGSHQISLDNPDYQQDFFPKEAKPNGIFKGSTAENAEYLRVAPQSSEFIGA

| IC50 [1] [µM] | IC50 (Wild type EGFR; [4]) [nM] | IC50 [2, 5] [µM] | solubility [3, 6] [µg/mL] | IC50 (EGFR-L858R/T790M; [7]) [nM] | IC50 (Wild type EGFR; read-out: Inhibitory activity of EGFR on kinase (IC50) WT) [nM] | IC50 (EGFR-L858R/T790M; EGFR T790M/L858R, read-out: Inhibitory activity of EGFR on kinase (IC50) T790M/L858R) [nM] | IC50 ([2]; H1975 (EGFR-T790M/L858R), read-out: IC50 of inhibiting proliferation of H1975 cells) [µM] | solubility ([3]; 20 mM phosphate buffer, pH 6.8, read-out: solubility in water) [µg/mL] | IC50 (EGFR-L858R/T790M; read-out: IC50 of inhibitory activity on EGFR-T790M/L858R kinase) [nM] | SMILES |
| --- | --- | --- | --- | --- | --- | --- | --- | --- | --- | --- |
| 1.66 | 47 | 0.06 | 208 (≈ 405 µM) | 1 |  |  |  |  |  | C=CC(=O)Nc1cccc(-n2c(=O)cnc3cnc(Nc4ccc(N(C)CCN(C)C)cc4OC)nc32)c1 [Compound 18, N-(3-(2-((4-((2-(dimethylamino)ethyl)(methyl)amino)-2-methoxyphenyl)amino)-7-oxo-8(7H)-pteridinyl)phenyl)acrylamide] |
| 3.23 | 26 | 0.074 | < 10 | 4.9 |  |  |  |  |  | C=CC(=O)Nc1cccc(-n2c(=O)c(C(C)C)nc3cnc(Nc4ccc(N5CCN(C)CC5)cc4OC)nc32)c1 [Compound 37, N-(3-(6-isopropyl-2-((2-methoxy-4-(4-methyl-1-piperazinyl)phenyl)amino)-7-oxo-8(7H)pteridinyl)phenyl)acrylamide] |
| > 10 | 2190 | 1.42 | 957 (≈ 1850 µM) | 191 |  |  |  |  |  | C=CC(=O)N1CCC[C@H](Cn2c(=O)cnc3cnc(Nc4ccc(N5CCN(C)CC5)cc4OC)nc32)C1 [Compound 17] |
| 2.52 | 3.5 | 0.006 | 369 (≈ 683 µM) | 6.2 |  |  |  |  |  | C=CC(=O)Nc1cccc(-n2c(=O)cnc3cnc(Nc4ccc(N5CCC(N(C)C)CC5)cc4OC)nc32)c1 [Compound 12] |
| 9.5 | 1300 | 3.23 | 10500 (≈ 19700 µM) | 559 |  |  |  |  |  | C=CC(=O)N1CC[C@H](n2c(=O)c(C(C)C)nc3cnc(Nc4ccc(N5CCN(C)CC5)cc4OC)nc32)C1 [Compound 26, (S)-8-(1-acryloyl-3-pyrrolidinyl)-6-isopropyl-2-((2-methoxy-4-(4-methyl-1-piperazinyl)phenyl)amino)-7(8H)-pteridinone] |
| 0.97 | 5.7 | 0.09 | 280 (≈ 549 µM) | 2.1 |  |  |  |  |  | C=CC(=O)Nc1cccc(-n2c(=O)cnc3cnc(Nc4ccc(CCN5CCN(C)CC5)cc4)nc32)c1 [Compound 8, N-(3-(2-((4-(2-(4-methyl-1-piperazinyl)ethyl)phenyl)amino)-7-oxo-8(7H)-pteridinyl)phenyl)acrylamide] |
| 1.85 | 53.7 | 0.116 | 264 (≈ 465 µM) | 3.8 |  |  |  |  |  | C=CC(=O)N1CC[C@H](n2c(=O)c(-c3ccccc3)nc3cnc(Nc4ccc(N5CCN(C)CC5)cc4OC)nc32)C1 [Compound 27, (S)-8-(1-acryloyl-3-pyrrolidinyl)-2-((2-methoxy-4-(4-methyl-1-piperazinyl)phenyl)amino)-6-phenyl-7(8H)-pteridinone] |
| 60.6 |  | 33.7 | > 11400 |  | > 10000 | > 10000 |  |  |  | C=CC(=O)N1CCC[C@H](n2c(=O)cnc3cnc(Nc4ccc(N5CCN(C)CC5)cc4OC)nc32)C1 [Compound 3] |
| 1.75 | 65.2 | 0.016 | 56.7 (≈ 103 µM) | 1.5 |  |  |  |  |  | C=CC(=O)N1CC[C@H](n2c(=O)c(-c3ccccc3)nc3cnc(Nc4ccc(N5CCN(C)CC5)c(C)c4)nc32)C1 [Compound 25, (S)-8-(1-acryloyl-3-pyrrolidinyl)-2-((3-methyl-4-(4-methyl-1-piperazinyl)phenyl)amino)-6-phenyl-7(8H)-pteridinone] |
| > 10 | > 10000 | 8.38 | 3970 (≈ 6730 µM) | > 10000 |  |  |  |  |  | COc1cc(N2CCN(C)CC2)ccc1Nc1ncc2nc(C(C)C)c(=O)n([C@H]3CCN(C(=O)/C=C/CN(C)C)C3)c2n1 [Compound 28] |
| > 10 | 4700 | > 10 | 956 (≈ 1840 µM) | > 10000 |  |  |  |  |  | C=CC(=O)N1CCC[C@@H](Cn2c(=O)cnc3cnc(Nc4ccc(N5CCN(C)CC5)cc4OC)nc32)C1 [Compound 16, (R)-8-((1-acryloyl-3-piperidinyl)methyl)-2-((2-methoxy-4-(4-methyl-1-piperazinyl)phenyl)amino)-7(8H)-pteridinone] |
| 1.48 | 4.2 | 0.046 | 8.9 (≈ 17 µM) | 5.7 |  |  |  |  |  | C=CC(=O)Nc1cccc(-n2c(=O)c(C(C)C)nc3cnc(Nc4ccc(N5CCN(C)CC5)cc4)nc32)c1 [Compound 13, N-(3-(6-isopropyl-2-((4-(4-methyl-1-piperazinyl)phenyl)amino)-7-oxo-8(7H)-pteridinyl)phenyl)acrylamide] |
| 3.2 | 1730 | 1.85 | 1690 (≈ 3410 µM) | 939 |  |  |  |  |  | C=CC(=O)Nc1cc(Nc2ncc3nc(C(C)C)c(=O)n(C)c3n2)c(OC)cc1N(C)CCN(C)C [Compound 23] |
| 1.6 | 177 | 3.09 | 438 (≈ 720 µM) | 791 |  |  |  |  |  | Cc1cc(Nc2ncc3nc(-c4ccccc4)c(=O)n([C@H]4CCN(C(=O)/C=C/CN(C)C)C4)c3n2)ccc1N1CCN(C)CC1 [Compound 29, (S,E)-8-(1-(4-(dimethylamino)-2-butenoyl)-3-pyrrolidinyl)-2-((3-methyl-4-(4-methyl-1-piperazinyl)phenyl)amino)-6-phenyl-7(8H)-pteridinone] |
| 13.8 | 251 | 12.2 | 1280 (≈ 2610 µM) | 129 |  |  |  |  |  | C=CC(=O)N1CC[C@H](n2c(=O)cnc3cnc(Nc4ccc(N5CCN(C)CC5)cc4OC)nc32)C1 [Compound 1] |
| 8.09 | 2.2 | 0.2 | 48.6 (≈ 89.6 µM) | 7.3 |  |  |  |  |  | C=CC(=O)Nc1cccc(-n2c(=O)cnc3cnc(Nc4ccc(N5CCN(CCO)CC5)cc4OC)nc32)c1 [Compound 11, N-(3-(2-((4-(4-(2-hydroxyethyl)-1-piperazinyl)-2-methoxyphenyl)amino)-7-oxo-8 (7H)-pteridinyl)phenyl)acrylamide] |
| 0.94 | 4.5 | 0.009 |  |  |  |  | 0.009 | 1370 (≈ 2670 µM) | 3.9 | C=CC(=O)Nc1cccc(-n2c(=O)cnc3cnc(Nc4ccc(N5CCN(C)CC5)c(OC)c4)nc32)c1 [Compound 4] |

Source: patent publication US11306095B2 (EAST CHINA UNIVERSITY OF SCIENCE AND TECHNOLOGY, priority 2015, dated 2022)
